Test results as given in patent publication US12110294B2, “CD73 compounds” (Gilead Sciences, Inc., priority 2020, dated 2024).
Read-outs that look alike come from different tables or passages of the source.

Columns and labels:
CD73 [1] = target: T1, CD73 (Homo sapiens, UniProt P21589); assay: CD73 Biochemical IC50 Assay; details: final AMP 15 uM, final CD73 0.3 nM, 25 mM Tris pH 7.4, 5 mM MgCl2, no phosphate
T1 construct: purchased R&D system
T1 sequence (P21589 27-549): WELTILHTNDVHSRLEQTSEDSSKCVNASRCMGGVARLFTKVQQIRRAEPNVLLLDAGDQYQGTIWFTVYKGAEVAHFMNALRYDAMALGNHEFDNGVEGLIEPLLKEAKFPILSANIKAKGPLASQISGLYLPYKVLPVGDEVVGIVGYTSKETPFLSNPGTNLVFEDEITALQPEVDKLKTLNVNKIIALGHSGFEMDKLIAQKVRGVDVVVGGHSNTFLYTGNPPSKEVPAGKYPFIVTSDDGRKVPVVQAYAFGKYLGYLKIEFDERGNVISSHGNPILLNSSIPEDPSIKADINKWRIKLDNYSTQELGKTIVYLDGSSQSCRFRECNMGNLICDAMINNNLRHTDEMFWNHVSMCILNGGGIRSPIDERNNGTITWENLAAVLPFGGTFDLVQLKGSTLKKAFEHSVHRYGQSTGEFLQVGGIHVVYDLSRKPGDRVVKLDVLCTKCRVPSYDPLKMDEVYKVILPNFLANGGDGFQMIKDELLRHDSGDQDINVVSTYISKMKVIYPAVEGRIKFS
Method: CD73 Biochemical IC50 Assay
Compound serial dilutions were pre-spotted into Thermo Nunc assay plate. 50 μL CD73 enzyme buffer (CD73 purchased from R&D system=0.6 nM, 25 mM Tris, pH 7.4, 5 mM MgCl2) was added into the assay plate and incubated for 15 mins. […] The samples were run using Rapid fire.

[2] = target: T2, CD73 activity in MDA-MB-231-GFP cells (Homo sapiens, UniProt P21589); assay: MDA-MB-231 Cell Based CD73 Activity Assay (DMEM); details: 3000 cells per well, DMEM medium with 10% human plasma, overnight compound treatment, AMP 200 uM
T2 construct: endogenous in cells; host or cells: MDA-MB-231-GFP cells
T2 sequence (P21589 27-549): T1 sequence (P21589 27-549)

CD73 [3] = target: T1, CD73; assay type: biochemical; details: 1 mM NaH2PO4 in enzyme buffer, final AMP 15 uM, final CD73 0.3 nM

| SMILES | IC50 (CD73 [1]) | EC50 [2] | IC50 (CD73 [3]) |
| --- | --- | --- | --- |
| O=c1[nH]cc(-c2cc([C@@H]3CC34CCC4)c3nccn3n2)c(=O)[nH]1 (racemic) [Example 5, (S)-5-(8-(spiro[2.3]hexan-1-yl)imidazo[1,2-b]pyridazin-6-yl)pyrimidine-2,4(1H,3H)-dione and (R)-5-(8-(spiro[2.3]hexan-1-yl)imidazo[1,2-b]pyridazin-6-yl)pyrimidine-2,4(1H,3H)-dione] | ≥ 2500 nM |  |  |
| O=c1[nH]cc(-c2cc([C@@H]3C[C@H]3c3ccc(C(F)(F)F)c(F)c3)c3nccn3n2)c(=O)[nH]1 (racemic) [Example 100, 5-(8-((2S,2S)-2-(3-fluoro-4-(trifluoromethyl)phenyl)cyclopropyl)imidazo[1,2-b]pyridazin-6-yl)pyrimidine-2,4(1H,3H)-dione and 5-(8-((1R,2R)-2-(3-fluoro-4-(trifluoromethyl)phenyl)cyclopropyl)imidazo[1,2-b]pyridazin-6-yl)pyrimidine-2,4(1H,3H)-dione] | 98.4 nM |  |  |
| COc1ccccc1[C@@H]1C[C@H]1c1cc(-c2c[nH]c(=O)[nH]c2=O)nn2ccnc12 (racemic) [Example 101, 5-(8-((2S,2S)-2-(2-methoxyphenyl)cyclopropyl)imidazo[1,2-b]pyridazin-6-yl)pyrimidine-2,4(1H,3H)-dione and 5-(8-((1R,2R)-2-(2-methoxyphenyl)cyclopropyl)imidazo[1,2-b]pyridazin-6-yl)pyrimidine-2,4(1H,3H)-dione] | 15.9 nM |  |  |
| O=c1[nH]cc(-c2cc([C@@H]3C[C@H]3C3CC(F)(F)C3)c3nccn3n2)c(=O)[nH]1 (racemic) [Example 106, 5-(8-((1S,2R)-2-(3,3-difluorocyclobutyl)cyclopropyl)imidazo[1,2-b]pyridazin-6-yl)pyrimidine-2,4(1H,3H)-dione and 5-(8-((1R,2S)-2-(3,3-difluorocyclobutyl)cyclopropyl)imidazo[1,2-b]pyridazin-6-yl)pyrimidine-2,4(1H,3H)-dione] | 105 nM |  |  |
| O=c1[nH]cc(-c2cc([C@H]3C[C@@H]3c3ccnc(C(F)(F)F)n3)c3nccn3n2)c(=O)[nH]1 (racemic) [Example 271, 5-(8-((2S,2S)-2-(2-(trifluoromethyl)pyrimidin-4-yl)cyclopropyl)imidazo[1,2-b]pyridazin-6-yl)pyrimidine-2,4(1H,3H)-dione] |  | 102 nM | 33.6 nM |
| O=c1[nH]cc(-c2cc([C@H]3C[C@@H]3c3ccc(OC(F)(F)F)cc3)c3ncc(F)n3n2)c(=O)[nH]1 (racemic) [Example 277, 5-(3-fluoro-8-((2S,2S)-2-(4-(trifluoromethoxy)phenyl)cyclopropyl)imidazo[1,2-b]pyridazin-6-yl)pyrimidine-2,4(1H,3H)-dione] |  | 79 nM | 3.77 nM |
| NC(=O)c1ccc([C@H]2C[C@@H]2c2cc(-c3c[nH]c(=O)[nH]c3=O)nn3ccnc23)cc1 (racemic) [Example 283, 4-((2S,2S)-2-(6-(2,4-dioxo-1,2,3,4-tetrahydropyrimidin-5-yl)imidazo[1,2-b]pyridazin-8-yl)cyclopropyl)benzamide] |  | 2.75 nM | 0.87 nM |
| O=c1[nH]cc(-c2cc([C@H]3C[C@@H]3c3ccc4cnn(CCC(F)(F)F)c4c3)c3nccn3n2)c(=O)[nH]1 (racemic) [Example 361, 5-(8-((1S,2S)-2-(1-(3,3,3-trifluoropropyl)-1H-indazol-6-yl)cyclopropyl)imidazo[1,2-b]pyridazin-6-yl)pyrimidine-2,4(1H,3H)-dione] |  | 2.53 nM | 2.72 nM |
| N#Cc1nn(CC(F)(F)F)c2cc([C@H]3C[C@@H]3c3cc(-c4c[nH]c(=O)[nH]c4=O)nn4ccnc34)ccc12 (racemic) [Example 362, 6-((1S,2S)-2-(6-(2,4-dioxo-1,2,3,4-tetrahydropyrimidin-5-yl)imidazo[1,2-b]pyridazin-8-yl)cyclopropyl)-1-(2,2,2-trifluoroethyl)-1H-indazole-3-carbonitrile] |  | 1 nM | 2.98 nM |
| O=c1[nH]cc(-c2cc([C@H]3C[C@@H]3c3cnc(C(F)(F)F)s3)c3nccn3n2)c(=O)[nH]1 (racemic) [Example 365, 5-(8-((2S,2S)-2-(2-(trifluoromethyl)thiazol-5-yl)cyclopropyl)imidazo[1,2-b]pyridazin-6-yl)pyrimidine-2,4(1H,3H)-dione] |  | 32.8 nM | 7.62 nM |
| O=c1[nH]cc(-c2cc([C@H]3C[C@@H]3c3nc(C(F)(F)F)cs3)c3nccn3n2)c(=O)[nH]1 (racemic) [Example 367, 5-(8-((2S,2S)-2-(4-(trifluoromethyl)thiazol-2-yl)cyclopropyl)imidazo[1,2-b]pyridazin-6-yl)pyrimidine-2,4(1H,3H)-dione] |  | 67.6 nM | 17.5 nM |
| O=c1[nH]cc(-c2cc([C@H]3C[C@@H]3c3ccc(C(F)F)cn3)c3nccn3n2)c(=O)[nH]1 (racemic) [Example 379, 5-(8-((1S,2S)-2-(5-(difluoromethyl)pyridin-2-yl)cyclopropyl)imidazo[1,2-b]pyridazin-6-yl)pyrimidine-2,4(1H,3H)-dione] |  | 5.89 nM | 1.98 nM |
| O=C(NCC(F)(F)F)OC1CN(c2cc(-c3c[nH]c(=O)[nH]c3=O)nn3ncnc23)CC1(F)F (racemic) [Example 436, 1-(6-(2,4-dioxo-1,2,3,4-tetrahydropyrimidin-5-yl)-[1,2,4]triazolo[1,5-b]pyridazin-8-yl)-4,4-difluoropyrrolidin-3-yl (2,2,2-trifluoroethyl)carbamate] |  | 0.43 nM | 0.13 nM |
| O=c1[nH]cc(-c2cc([C@H]3C[C@@H]3c3ccc(OCC(F)F)cn3)c3nccn3n2)c(=O)[nH]1 (racemic) [Example 590, 5-(8-((2S,2S)-2-(5-(2,2-difluoroethoxy)pyridin-2-yl)cyclopropyl)imidazo[1,2-b]pyridazin-6-yl)pyrimidine-2,4(1H,3H)-dione] |  | 2.04 nM | 1.05 nM |
| O=c1[nH]cc(-c2cc([C@H]3C[C@@H]3c3cnc4cnn(CC(F)(F)F)c4c3)c3nccn3n2)c(=O)[nH]1 (racemic) [Example 614, 5-(8-((1S,2S)-2-(1-(2,2,2-trifluoroethyl)-1H-pyrazolo[4,3-b]pyridin-6-yl)cyclopropyl)imidazo[1,2-b]pyridazin-6-yl)pyrimidine-2,4(1H,3H)-dione] |  | 0.13 nM | 2.06 nM |
| O=c1[nH]cc(-c2cc(N3C[C@H](O)C(F)(F)C3)c3nccn3n2)c(=O)[nH]1 (single isomer, unassigned) [Example 527] |  | 16.3 nM | 5.66 nM |
| O=c1[nH]cc(-c2cc(N3C[C@@H](O)C(F)(F)C3)c3nccn3n2)c(=O)[nH]1 (single isomer, unassigned) [Example 528] |  | 12.9 nM | 6.25 nM |
| O=c1[nH]cc(-c2cc([C@H]3C[C@@H]3c3ccc4c(c3)ncn4CC(F)(F)F)c3nccn3n2)c(=O)[nH]1 [Example 324, 5-(8-((1S,2S)-2-(1-(2,2,2-trifluoroethyl)-1H-benzo[d]imidazol-5-yl)cyclopropyl)imidazo[1,2-b]pyridazin-6-yl)pyrimidine-2,4(1H,3H)-dione] |  | 1.59 nM | 1.15 nM |
| O=c1[nH]cc(-c2cc([C@H]3C[C@@H]3c3ccc(F)cc3F)n3ncnc3n2)c(=O)[nH]1 [Example 416, 5-(7-((2S,2S)-2-(2,4-difluorophenyl)cyclopropyl)-[1,2,4]triazolo[1,5-a]pyrimidin-5-yl)pyrimidine-2,4(1H,3H)-dione] |  | 33.5 nM | 0.71 nM |
| O=c1[nH]cc(-c2cc([C@H]3C[C@@H]3c3ccc(C(F)(F)F)cc3)n3ncnc3n2)c(=O)[nH]1 [Example 417, 5-(7-((2S,2S)-2-(4-(trifluoromethyl)phenyl)cyclopropyl)-[1,2,4]triazolo[1,5-a]pyrimidin-5-yl)pyrimidine-2,4(1H,3H)-dione] |  | 12.6 nM | 0.87 nM |
| O=c1[nH]cc(-c2cc([C@H]3C[C@@H]3c3cc4c(cnn4CC(F)(F)F)cc3F)c3ncc(F)n3n2)c(=O)[nH]1 [Example 613, 5-(3-fluoro-8-((1S,2S)-2-(5-fluoro-1-(2,2,2-trifluoroethyl)-1H-indazol-6-yl)cyclopropyl)imidazo[1,2-b]pyridazin-6-yl)pyrimidine-2,4(1H,3H)-dione] |  | 0.71 nM | 0.58 nM |
| O=c1[nH]cc(-c2cc(N3C[C@@H]4C[C@H]3C(F)(F)C4)c3nccn3n2)c(=O)[nH]1 [Example 644, 5-(8-(6,6-difluoro-2-azabicyclo[2.2.1]heptan-2-yl)imidazo[1,2-b]pyridazin-6-yl)pyrimidine-2,4(1H,3H)-dione] |  | 1420 nM | > 250 nM |
